Molecular target: T1, ALK5 kinase (Homo sapiens, UniProt P36897)
T1 construct: GST; purchased Thermo Fisher Scientific Solutions
T1 sequence (P36897 34-503): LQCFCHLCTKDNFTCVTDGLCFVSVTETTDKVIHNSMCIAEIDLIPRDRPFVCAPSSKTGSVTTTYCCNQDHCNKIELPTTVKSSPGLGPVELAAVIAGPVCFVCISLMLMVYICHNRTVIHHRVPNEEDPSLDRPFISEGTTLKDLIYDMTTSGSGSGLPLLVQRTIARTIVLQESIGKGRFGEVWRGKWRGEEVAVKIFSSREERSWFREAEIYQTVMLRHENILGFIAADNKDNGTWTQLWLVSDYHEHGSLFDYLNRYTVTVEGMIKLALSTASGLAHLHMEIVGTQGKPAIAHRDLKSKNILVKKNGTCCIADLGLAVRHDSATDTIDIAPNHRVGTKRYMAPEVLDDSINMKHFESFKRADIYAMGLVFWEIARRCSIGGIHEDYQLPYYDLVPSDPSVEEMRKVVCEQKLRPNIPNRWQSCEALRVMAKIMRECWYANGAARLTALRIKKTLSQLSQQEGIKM
Assay: Activity inhibition test on ALK5 enzyme (LanthaScreen Eu binding kinase assay)
Conditions: kinase tracer 178, 60 minutes at room temperature
Summary of the method: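 IC50 is the concentration giving 50% inhibition relative to control, taken from fluorescence after 60 min stirring at room temperature. Final mix held kinase 5 nM, Eu-GST binding antibody 2 nM and tracer 178 10 nM. Compounds were serially diluted from 1 μM to 0.0001 μM.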

Compound | IC50 [nM]
Cc1cccc(-n2nc(C(=O)NCc3ccccc3Cl)cc2-c2ccc3nccnc3c2)n1 [Example 201, N-(2-chlorobenzyl)-1-(6-methylpyridin-2-yl)-5-(quinoxalin-6-yl)-1H-pyrazole-3-carboxyamide] | 10 to 100
Cc1cccc(-n2nc(C(=O)Nc3ccccc3F)cc2-c2ccc3nccnc3c2)c1 [Example 202, N-(2-fluorophenyl)-5-(quinoxalin-6-yl)-1-(m-tolyl)-1H-pyrazole-3-carboxyamide] | > 1000
COc1ccc(NC(=O)c2cc(-c3ccc4nccnc4c3)n(-c3cc(Cl)ccc3F)n2)cc1 [Example 203, 1-(5-chloro-2-fluorophenyl)-N-(4-methoxyphenyl)-5-(quinoxalin-6-yl)-1H-pyrazole-3-carboxyamide] | > 100
CN(C)c1ccc(NC(=O)c2cc(-c3ccc4nccnc4c3)n(-c3cc(Cl)ccc3F)n2)cc1 [Example 204, 1-(5-chloro-2-fluorophenyl)-N-(4-(dimethylamino)phenyl)-5-(quinoxalin-6-yl)-1H-pyrazole-3-carboxyamide] | ~100
COc1ccc(NC(=O)c2cc(-c3ccc4nccnc4c3)n(-c3cccc(C(F)(F)F)n3)n2)cc1 [Example 205] | > 100
CN(C)c1ccc(NC(=O)c2cc(-c3ccc4nccnc4c3)n(-c3cccc(C(F)(F)F)n3)n2)cc1 [Example 206] | > 100
COc1ccc(NC(=O)c2cc(-c3ccc4nccnc4c3)n(-c3cccc(Br)n3)n2)cc1 [Example 207, 1-(6-bromopyridin-2-yl)-N-(4-methoxyphenyl)-5-(quinoxalin-6-yl)-1H-pyrazole-3-carboxyamide] | 10 to 100
CN(C)c1ccc(NC(=O)c2cc(-c3ccc4nccnc4c3)n(-c3cccc(Br)n3)n2)cc1 [Example 208, 1-(6-bromopyridin-2-yl)-N-(4-(dimethylamino)phenyl)-5-(quinoxalin-6-yl)-1H-pyrazole-3-carboxyamide] | 10 to 100
Cc1cccc(-n2nc(C(=O)Nc3ccccc3F)cc2-c2ccnc3ccccc23)n1 [Example 209, N-(2-fluorophenyl)-1-(6-methylpyridin-2-yl)-5-(quinolin-4-yl)-1H-pyrazole-3-carboxyamide] | > 100
COc1ccc(NC(=O)c2cc(-c3ccnc4ccccc34)n(-c3cccc(C)n3)n2)cc1 [Example 210, N-(4-methoxyphenyl)-1-(6-methylpyridin-2-yl)-5-(quinolin-4-yl)-1H-pyrazole-3-carboxyamide] | 10 to 100
Cc1cccc(-n2nc(C(=O)Nc3ccc(S(C)(=O)=O)cc3)cc2-c2ccnc3ccccc23)n1 [Example 211, 1-(6-methylpyridin-2-yl)-N-(4-(methylsulfonyl)phenyl)-5-(quinolin-4-yl)-1H-pyrazole-3-carboxyamide] | < 10
COc1ccc(NC(=O)c2cc(-c3ccnc4ccccc34)n(-c3cccc(C)n3)n2)cn1 [Example 212, N-(6-methoxypyridin-3-yl)-1-(6-methylpyridin-2-yl)-5-(quinolin-4-yl)-1H-pyrazole-3-carboxyamide] | 36
Cc1cccc(-n2nc(C(=O)Nc3ccc(Cl)nc3)cc2-c2ccnc3ccccc23)n1 [Example 213, N-(6-chloropyridin-3-yl)-1-(6-methylpyridin-2-yl)-5-(quinolin-4-yl)-1H-pyrazole-3-carboxyamide] | 23
Cc1cccc(-n2nc(C(=O)Nc3ccc4c(c3)OCO4)cc2-c2ccnc3ccccc23)n1 [Example 214, N-(benzo[d][1,3]dioxol-5-yl)-1-(6-methylpyridin-2-yl)-5-(quinolin-4-yl)-1H-pyrazole-3-carboxyamide] | 30
COc1ccc(NC(=O)c2cc(-c3ccnc4ccccc34)n(-c3cccc(C)n3)n2)cc1F [Example 215, N-(3-fluoro-4-methoxyphenyl)-1-(6-methylpyridin-2-yl)-5-(quinolin-4-yl)-1H-pyrazole-3-carboxyamide] | 91
COc1ccc(NC(=O)c2cc(-c3ccnc4ccccc34)n(-c3cccc(C)n3)n2)c(F)c1 [Example 216, N-(2-fluoro-4-methoxyphenyl)-1-(6-methylpyridin-2-yl)-5-(quinolin-4-yl)-1H-pyrazole-3-carboxyamide] | ~100

Now from value to molecule:

IC50 [nM] | Compound
18 | COCCOc1ccc(NC(=O)c2cc(-c3ccnc4ccccc34)n(-c3cccc(C)n3)n2)cc1 [Example 217, N-(4-(2-methoxyethoxy)phenyl)-1-(6-methylpyridin-2-yl)-5-(quinolin-4-yl)-1H-pyrazole-3-carboxyamide]
10 to 100 | Cc1cccc(-n2nc(C(=O)Nc3ccc(S(=O)(=O)C4CC4)cc3)cc2-c2ccc3nonc3c2)n1 [Example 218, 5-(benzo[c][1,2,5]oxadiazol-5-yl)-N-(4-(cyclopropylsulfonyl)phenyl)-1-(6-methylpyridin-2-yl)-1H-pyrazole-3-carboxyamide]
27 | Cc1cccc(-n2nc(C(=O)Nc3ccccc3F)cc2-c2ccc3ncoc3c2)n1 [Example 219, 5-(benzo[d]oxazol-6-yl)-N-(2-fluorophenyl)-1-(6-methylpyridin-2-yl)-1H-pyrazole-3-carboxyamide]
3.2 | Cc1cccc(-n2nc(C(=O)Nc3ccc(S(=O)(=O)C4CC4)cc3)cc2-c2ccc3ncoc3c2)n1 [Example 220]
4.3 | Cc1cccc(-n2nc(C(=O)NC3CC3)cc2-c2ccc(F)c(-c3cnn(CCO)c3)c2)n1 [Example 221, N-cyclopropyl-5-(4-fluoro-3-(1-(2-hydroxyethyl)-1H-pyrazol-4-yl)phenyl)-1-(6-methylpyridin-2-yl)-1H-pyrazole-3-carboxyamide]
1 | Cc1cccc(-n2nc(C(=O)Nc3cn[nH]c3)cc2-c2ccc(F)c(-c3cnn(CCO)c3)c2)n1 [Example 222, N-(1H-pyrazol-4-yl)-5-(4-fluoro-3-(1-(2-hydroxyethyl)-1H-pyrazol-4-yl)phenyl)-1-(6-methylpyridin-2-yl)-1H-pyrazole-3-carboxyamide]
2.8 | Cc1cccc(-n2nc(C(=O)Nc3cnn(C)c3)cc2-c2ccc(F)c(-c3cnn(CCO)c3)c2)n1 [Example 223, N-(1-methyl-1H-pyrazol-4-yl)-5-(4-fluoro-3-(1-(2-hydroxyethyl)-1H-pyrazol-4-yl)phenyl)-1-(6-methylpyridin-2-yl)-1H-pyrazole-3-carboxyamide]
3.1 | Cc1cccc(-n2nc(C(=O)Nc3cnn(S(C)(=O)=O)c3)cc2-c2ccc(F)c(-c3cnn(CCO)c3)c2)n1 [Example 224, N-(1-(methylsulfonyl)-1H-pyrazol-4-yl)-5-(4-fluoro-3-(1-(2-hydroxyethyl)-1H-pyrazol-4-yl)phenyl)-1-(6-methylpyridin-2-yl)-1H-pyrazole-3-carboxyamide]
33 | Cc1cccc(-n2nc(C(=O)Nc3ccc(Cl)cc3)cc2-c2ccc(F)c(-c3cnn(CCO)c3)c2)n1 [Example 225, N-(4-chlorophenyl)-5-(4-fluoro-3-(1-(2-hydroxyethyl)-1H-pyrazol-4-yl)phenyl)-1-(6-methylpyridin-2-yl)-1H-pyrazole-3-carboxyamide]
4.7 | Cc1cccc(-n2nc(C(=O)Nc3ccc(S(C)(=O)=O)cc3)cc2-c2ccc(F)c(-c3cnn(CCO)c3)c2)n1 [Example 226, N-(4-(methylsulfonyl)phenyl)-5-(4-fluoro-3-(1-(2-hydroxyethyl)-1H-pyrazol-4-yl)phenyl)-1-(6-methylpyridin-2-yl)-1H-pyrazole-3-carboxyamide]
~100 | Cc1cccc(-n2nc(C(=O)Nc3ccccc3F)cc2-c2cc3cnccc3s2)c1 [Example 227, N-(2-fluorophenyl)-5-(thieno[3,2,c]pyridin-2-yl)-1-(m-tolyl)-1H-pyrazole-3-carboxyamide]

Source: patent US10954232B2, “Pyrazole derivative as ALK5 inhibitor and uses thereof” (HANMI PHARMACEUTICAL CO., LTD., priority 2016, dated 2021)
